Assay [1] has as its target T1, HDAC6 (Homo sapiens, UniProt Q9UBN7).
T1 sequence (Q9UBN7 1-1215): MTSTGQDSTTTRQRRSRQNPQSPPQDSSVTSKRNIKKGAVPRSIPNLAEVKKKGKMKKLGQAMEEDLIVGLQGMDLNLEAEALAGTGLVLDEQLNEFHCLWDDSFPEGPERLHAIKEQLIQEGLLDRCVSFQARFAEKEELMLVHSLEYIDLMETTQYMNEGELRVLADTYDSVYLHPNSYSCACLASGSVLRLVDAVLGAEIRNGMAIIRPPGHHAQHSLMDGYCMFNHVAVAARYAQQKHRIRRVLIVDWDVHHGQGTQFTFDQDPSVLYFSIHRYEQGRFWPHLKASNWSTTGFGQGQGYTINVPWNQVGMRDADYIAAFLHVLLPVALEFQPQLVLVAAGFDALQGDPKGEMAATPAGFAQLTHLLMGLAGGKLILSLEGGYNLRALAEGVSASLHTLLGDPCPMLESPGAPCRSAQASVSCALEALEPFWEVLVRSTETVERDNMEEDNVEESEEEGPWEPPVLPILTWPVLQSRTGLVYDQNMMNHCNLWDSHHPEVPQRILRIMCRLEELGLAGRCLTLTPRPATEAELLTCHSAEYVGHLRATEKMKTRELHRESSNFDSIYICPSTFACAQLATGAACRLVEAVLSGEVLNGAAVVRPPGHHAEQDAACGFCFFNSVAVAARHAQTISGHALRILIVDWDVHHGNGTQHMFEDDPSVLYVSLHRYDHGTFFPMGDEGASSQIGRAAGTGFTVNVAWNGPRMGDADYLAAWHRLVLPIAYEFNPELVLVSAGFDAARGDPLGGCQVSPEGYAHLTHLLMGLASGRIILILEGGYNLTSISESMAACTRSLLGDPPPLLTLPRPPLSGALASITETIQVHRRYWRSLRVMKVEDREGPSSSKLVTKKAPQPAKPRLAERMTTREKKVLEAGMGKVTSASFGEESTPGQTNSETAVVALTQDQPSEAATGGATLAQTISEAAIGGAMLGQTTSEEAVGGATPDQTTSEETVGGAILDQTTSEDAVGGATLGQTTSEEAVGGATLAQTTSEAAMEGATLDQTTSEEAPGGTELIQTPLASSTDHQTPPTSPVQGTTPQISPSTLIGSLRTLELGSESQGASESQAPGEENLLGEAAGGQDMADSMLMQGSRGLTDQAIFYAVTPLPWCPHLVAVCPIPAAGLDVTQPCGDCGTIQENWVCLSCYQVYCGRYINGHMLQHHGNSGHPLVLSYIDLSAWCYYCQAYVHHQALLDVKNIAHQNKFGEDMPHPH
Description: HDAC isoform assay, HDAC6.

The test system of assay [2] is HDACs (nuclear HeLa extract). The assay is described as follows: pan-HDAC fluorescent biochemical assay with nuclear HeLa extract. The conditions noted are these: HDAC peptide substrate, 60 min at 37° C. The method, then:
Substrate was synthesized in house. Stocks were prepared in DMSO (10 mM).
Compound working solution: Compounds dissolved in assay buffer at 4× Screening concentration. Activator solution: Trypsin (10 mg/mL) diluted 1:1600 in Assay Buffer containing 4 μM TSA.
Total reaction Volume: 40 μL
Reaction was allowed to run for 60 minutes at 37° C.
2. Combine in a white ½ area well plate: 10 μl of 4× compound (or buffer), 15 μl of substrate and 15 μl of HeLa extract. Mix well
3. Incubate at 37° C. for 60 min.
4. Prepare Activator solution. Dilute Trypsin 1:1600 in Assay Buffer+4μM TSA. 20 μl is needed per assay point.
5. Add 20 μl of prepared activator solution and mix thoroughly.
The hydroxamic-acid based compounds of the present invention were tested in the biochemical assay for their pan-HDAC inhibitory activity.

For assay [3], the target named is T2, HDAC2 (Homo sapiens, UniProt Q92769).
T2 construct: purchased BioMol
T2 sequence (Q92769 whole entry): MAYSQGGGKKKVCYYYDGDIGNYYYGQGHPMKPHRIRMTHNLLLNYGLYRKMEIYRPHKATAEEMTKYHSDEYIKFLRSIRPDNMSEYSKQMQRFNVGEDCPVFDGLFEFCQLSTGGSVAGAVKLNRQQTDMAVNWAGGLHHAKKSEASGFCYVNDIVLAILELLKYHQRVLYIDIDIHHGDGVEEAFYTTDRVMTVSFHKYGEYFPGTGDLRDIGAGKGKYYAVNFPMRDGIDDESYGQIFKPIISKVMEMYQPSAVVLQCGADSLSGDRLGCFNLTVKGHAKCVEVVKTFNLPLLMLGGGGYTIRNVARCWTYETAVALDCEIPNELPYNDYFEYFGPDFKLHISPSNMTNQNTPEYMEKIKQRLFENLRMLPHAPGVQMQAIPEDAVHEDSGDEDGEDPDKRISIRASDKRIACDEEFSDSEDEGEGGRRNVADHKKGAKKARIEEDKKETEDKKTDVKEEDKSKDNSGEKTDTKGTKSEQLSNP
The assay is described as follows: HDAC isoform assay, HDAC2. It is filed as biochemical. The following applies: substrate KI-177; read-out: HDAC2, IC50, ELISA (KI-177). Background: ELISA stands for enzyme-linked immunosorbent assay.

The subject of assay [4] is HCT-116 cells. The assay is described as follows: MTS cell viability assay, HCT-116. The conditions noted are these: Homo sapiens. Format: cell-based. The method, then:
(§1) The MTS cell viability assay was used to determine the potency of proliferation inhibitor with. MTS measures mitochondrial dehydrogenase activity and serves as surrogate readout for the number of viable cells.
(§2) For MTS assay, cells were plated in 96-well plates at 2000 cells per well and incubated in the presence of compounds for 72 hr. MTS was added to each well as instructed by manufacture (Promega) and plates were incubated for 4 h at 37° C. The absorbance of each well was measured at 490 nm using a microplate reader.

The test system of assay [5] is Hut78 cells. Description: MTS cell viability assay, Hut78. It is filed as cell-based. The following applies: Homo sapiens; Hut78, 72 hr; read-out: Hut78, IG50, MTS. The method, then:
as §1, §2
Background: Tetrazolium assays rely on reduction of a dye to a coloured formazan, in cell work by metabolically active cells.

The target of assay [6] is T3, HDAC9 (Homo sapiens, UniProt Q9UKV0).
T3 construct: purchased BioMol
T3 sequence (Q9UKV0 whole entry): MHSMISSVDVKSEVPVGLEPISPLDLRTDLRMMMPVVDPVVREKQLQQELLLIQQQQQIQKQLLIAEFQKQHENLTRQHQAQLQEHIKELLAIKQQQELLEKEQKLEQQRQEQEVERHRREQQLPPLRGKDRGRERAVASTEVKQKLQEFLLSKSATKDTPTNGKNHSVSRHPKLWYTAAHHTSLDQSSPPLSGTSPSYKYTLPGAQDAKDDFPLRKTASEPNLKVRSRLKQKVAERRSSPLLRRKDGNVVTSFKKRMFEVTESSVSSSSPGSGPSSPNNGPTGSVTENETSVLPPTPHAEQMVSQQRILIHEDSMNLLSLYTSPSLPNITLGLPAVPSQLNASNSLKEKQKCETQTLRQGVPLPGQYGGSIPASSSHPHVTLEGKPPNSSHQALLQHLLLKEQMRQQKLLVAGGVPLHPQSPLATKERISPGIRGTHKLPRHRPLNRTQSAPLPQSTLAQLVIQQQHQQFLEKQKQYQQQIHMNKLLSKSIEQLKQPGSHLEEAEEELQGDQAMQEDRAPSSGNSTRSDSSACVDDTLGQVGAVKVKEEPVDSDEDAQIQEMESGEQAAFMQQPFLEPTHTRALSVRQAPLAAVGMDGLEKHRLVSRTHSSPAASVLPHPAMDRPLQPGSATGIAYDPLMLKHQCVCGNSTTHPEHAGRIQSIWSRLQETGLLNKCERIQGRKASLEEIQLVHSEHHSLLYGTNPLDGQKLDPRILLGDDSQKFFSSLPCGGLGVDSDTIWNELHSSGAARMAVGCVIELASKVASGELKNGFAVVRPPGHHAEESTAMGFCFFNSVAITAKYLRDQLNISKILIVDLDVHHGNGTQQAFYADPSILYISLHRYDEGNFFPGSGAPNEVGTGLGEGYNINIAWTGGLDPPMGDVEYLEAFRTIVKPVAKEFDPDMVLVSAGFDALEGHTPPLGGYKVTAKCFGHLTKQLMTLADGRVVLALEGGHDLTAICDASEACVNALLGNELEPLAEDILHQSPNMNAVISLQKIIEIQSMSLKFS
Description: HDAC isoform assay, HDAC9. Format: biochemical.

In assay [7] the test system is MJ cells. The assay is described as follows: MTS cell viability assay, MJ. It is filed as cell-based. The conditions noted are these: 72 hr, read-out: MJ, IG50, MTS. The method, then:
as §1, §2

The target of assay [8] is T4, HDAC4 (Homo sapiens, UniProt P56524).
T4 construct: purchased BioMol
T4 sequence (P56524 whole entry): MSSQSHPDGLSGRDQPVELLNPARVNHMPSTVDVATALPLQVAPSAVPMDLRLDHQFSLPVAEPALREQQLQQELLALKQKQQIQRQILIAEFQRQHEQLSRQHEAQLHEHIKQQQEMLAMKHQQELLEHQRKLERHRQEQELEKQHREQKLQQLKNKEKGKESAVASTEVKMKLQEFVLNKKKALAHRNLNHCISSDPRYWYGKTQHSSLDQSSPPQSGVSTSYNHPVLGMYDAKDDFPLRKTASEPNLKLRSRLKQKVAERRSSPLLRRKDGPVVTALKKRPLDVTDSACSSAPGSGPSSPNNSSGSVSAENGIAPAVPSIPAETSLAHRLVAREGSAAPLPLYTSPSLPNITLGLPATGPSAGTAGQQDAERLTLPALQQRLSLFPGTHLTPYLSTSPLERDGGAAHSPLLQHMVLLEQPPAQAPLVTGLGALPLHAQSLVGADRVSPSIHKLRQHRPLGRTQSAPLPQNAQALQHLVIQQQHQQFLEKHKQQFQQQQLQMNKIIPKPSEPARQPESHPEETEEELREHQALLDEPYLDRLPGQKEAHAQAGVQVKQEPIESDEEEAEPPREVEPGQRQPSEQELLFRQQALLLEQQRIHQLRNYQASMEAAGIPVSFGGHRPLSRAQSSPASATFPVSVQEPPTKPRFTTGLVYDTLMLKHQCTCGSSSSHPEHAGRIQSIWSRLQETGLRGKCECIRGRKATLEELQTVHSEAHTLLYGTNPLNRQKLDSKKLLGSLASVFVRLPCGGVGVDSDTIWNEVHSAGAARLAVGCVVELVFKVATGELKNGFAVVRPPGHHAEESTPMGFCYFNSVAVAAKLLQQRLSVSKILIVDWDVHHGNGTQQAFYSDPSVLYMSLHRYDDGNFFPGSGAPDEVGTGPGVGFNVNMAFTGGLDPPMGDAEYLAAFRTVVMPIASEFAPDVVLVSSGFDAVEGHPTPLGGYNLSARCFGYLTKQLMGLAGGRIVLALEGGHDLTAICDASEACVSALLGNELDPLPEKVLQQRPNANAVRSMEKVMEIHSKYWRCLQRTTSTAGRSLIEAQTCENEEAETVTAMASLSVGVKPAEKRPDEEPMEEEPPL
Description: HDAC isoform assay, HDAC4. It is filed as biochemical. The following applies: substrate KI-177; read-out: HDAC4, IC50, ELISA (KI-177).

[9] abbreviates: HCT-116, 72 h, read-out: HCT-116, IG50, MTS (uM).
The mark [10] stands for this setting: HCT-116, 72 hr, read-out: HCT-116, IG50, MTS.

Each structure is given as a SMILES string. Like-named read-outs stand apart in the source and are kept apart here.

Data on seven compounds can be found in patent publication US20100261710A1, “HDAC Inhibitors” (ARQULE, INC., priority 2007, published 2010).

For `O=C(CCCCCNC(=O)c1cn2c3c(cccc13)CCC2)NO` [compound 2, N-[6-(hydroxyamino)-6-oxohexyl]-5,6-dihydro-4H-pyrrolo[3,2,1-ij]quinoline-1-carboxamide], the IC50 worked out at 67.2 nM in assay [1]; 57.4 nM in assay [2]; 1940 nM in assay [3]; 0.63 µM in assay [4] (setting [9]); 2920 nM in assay [5]; 106 nM in assay [6]. The IC50 in assay [7] amounted to 5000 nM.

As for `O=C(CCCCCCNC(=O)c1cn2c3c(cccc13)CCC2)NO` [compound 3, N-[7-(hydroxyamino)-7-oxoheptyl]-5,6-dihydro-4H-pyrrolo[3,2,1-ij]quinoline-1-carboxamide], the IC50 was 40.5 nM in assay [8]; 158 nM in assay [1]; 69.8 nM in assay [2]; 2460 nM in assay [3]; 0.215 µM in assay [4] (setting [9]); 240 nM in assay [5]. Moreover, the figures for the IC50 in assay [6] and in assay [7] were 413 nM and 120 nM, respectively.

Turning to `O=C(CCCCCNC(=O)C(=O)c1cn2c3c(cccc13)CCC2)NO` [compound 8, 6-{[5,6-dihydro-4H-pyrrolo[3,2,1-ij]quinolin-1-yl(oxo)acetyl]amino}-N-hydroxyhexanamide], the IC50 stood at 77.6 nM in assay [1]; 115 nM in assay [2]; 1800 nM in assay [3]; 0.737 µM in assay [4] (setting [9]); 7680 nM in assay [7].

In the case of `O=C(CCCNC(=O)C(=O)c1cn2c3c(cccc13)CCC2)NO` [compound 9, 4-{[5,6-dihydro-4H-pyrrolo[3,2,1-ij]quinolin-1-yl(oxo)acetyl]amino}-N-hydroxybutanamide], the IC50 in assay [1] came out at 692 nM; in assay [2], 602 nM; in assay [3], 3000 nM; in assay [4] (setting [9]) it was 5.02 µM; in assay [5] it was 903 nM; in assay [7], 4110 nM.

For `O=C(CCCCCCNC(=O)Nc1cn2c3c(cccc13)CCC2)NO` [compound 11, 7-[(5,6-dihydro-4H-pyrrolo[3,2,1-ij]quinolin-1-ylcarbamoyl)amino]-N-hydroxyheptanamide], the IC50 is 40.4 nM in assay [8]; 66.4 nM in assay [1]; 27.9 nM in assay [2]; 1340 nM in assay [3]; 0.492 µM in assay [4] (setting [10]); 181 nM in assay [5]. Moreover, the IC50 was determined as 88.7 nM in assay [6] and 470 nM in assay [7].

Consider `O=C(CCCCCCNC(=O)C(=O)c1cn2c3c(cccc13)CCC2)NO` [compound 12, 7-{[5,6-dihydro-4H-pyrrolo[3,2,1-ij]quinolin-1-yl(oxo)acetyl]amino}-N-hydroxyheptanamide], for which the IC50 in assay [8] is 298 nM; in assay [1], 134 nM; in assay [2] it was 126 nM; in assay [3], 2320 nM; in assay [4] (setting [10]), 0.701 µM; in assay [5], 174 nM. The IC50 in assay [6] was found to be 1060 nM; in assay [7], 130 nM.

Consider `O=C(CCCCCNC(=O)Nc1cn2c3c(cccc13)CCC2)NO` [compound 13, 6-[(5,6-dihydro-4H-pyrrolo[3,2,1-ij]quinolin-1-ylcarbamoyl)amino]-N-hydroxyhexanamide], for which the IC50 amounted to 63.2 nM in assay [1]; 32.2 nM in assay [2]; 1780 nM in assay [3]; 0.636 µM in assay [4] (setting [10]); 1270 nM in assay [5]; 97.2 nM in assay [6].
